Laboratory results reported in US20190086302A1, “COMPOSITION FOR PREPARING BIOLOGICAL MATERIAL HAVING EXCELLENT LIGHT TRANSMISSIVITY AND USE OF COMPOSITION” (RIKEN, priority 2016, published 2019).
Counter-ions that a name gives are not always drawn. Like-named read-outs stand apart in the source and are kept apart here.

How the values were obtained:
pH of chemical solution = assay type: physicochemical
[1] = Absorbance of chemical solution at 400 nm (OD400); assay type: physicochemical
bovine coagulated blood = assay: Decoloring screening: heme eluted from PFA-fixed bovine coagulated blood, absorbance of supernatant; details: Table 2, 10 wt % aqueous solution, 37° C. overnight; for 700 nm calibrated 420 nm Average: decoloring activity OD420-OD700 of supernatant
Method: A high-throughput screening system for evaluating the decoloring ability of various compounds was constructed. The screening system involved adding an aqueous solution of each compound to bovine coagulated blood and then measuring the absorbance of heme collected in the supernatant.
Specifically, to bovine blood, an equal amount of 8% PFA solution was added, and reacted at 4° C. overnight. The mixed liquid was centrifuged at 1500×g for 5 minutes, and the supernatant containing PFA was discarded. Then, the same amount of PBS as the original volume of blood was added to prepare a coagulated blood sample. To 150 μL of 10 wt % aqueous solution of each compound, 50 μL of the coagulated blood sample was added, and reacted at 37° C. overnight. The reaction solution was centrifuged at 1500×g for 5 minutes, and then 100 μL of the supernatant was added to a plate so as to be subjected to absorbance measurement. A sample which is suspended in water instead of being dissolved in the water has a weak decoloring effect, but none the less has a high absorbance value. […]

mouse hemisphere = assay: Delipidation and clearing of mouse hemisphere; details: basic chemicals with pH of 11 to 12; 10 wt %, 37° C., 3 days, then CUBIC-2A
Method: Subsequently, the delipidation efficiency of the series of compounds in mammalian tissue was examined. […] The transmittance of the brain tissue was measured, and then the brain tissue was washed with PBS and was disrupted. […] It was thus shown that the above basic chemicals and some neutral chemicals were better than the detergents from the viewpoint of permeability with respect to tissue. […] Subsequently, the mouse hemisphere was subjected to refractive index adjustment with CUBIC-2A. […] Accordingly, #0414 (N-butyldiethanolamine) was selected as a highly-efficient delipidation chemical.

mouse spleen = assay: Decoloring of mouse spleen (OD420 of supernatant, transmissive image); details: 10 wt % solution, 37° C. overnight
mouse brain = assay: Swelling and clearing of delipidated mouse brain; details: brain delipidated with CUBIC-1, shaken 3 days
[2] = Table 2, absorbance of chemical solution at 400 nm

## Hydrazine carbonate [#1052]
pH of chemical solution
  pH: 10.2
[1]
  OD400: 0.047

## CCN(CC)CCO [#1575, 2-Diethylaminoethanol]
pH of chemical solution; Table 2, chemical solution
  pH: 12.8
[1]; [2]
  400 nm: 0.06

## CN(C)CCSSCCN(C)C [#0295, Bis(2-dimethylaminoethyl) disuflide dihydrochloride]
pH of chemical solution; Table 3
  pH: 5.3
[1]; Table 3
  OD400: 0.047

## NCC(O)CN [#1062, 1,3-Diamino-2-propanol]
Bovine coagulated blood
  Integrated value 500-700 nm Average: 0.50

## CCC(N)CCN (centres unmarked) [#0678, 1,3-Diaminopentane]
[1]; [2]
  400 nm: 0.048

## NCC1CCOCC1 [#0407, 4-Aminomethyltetrahydropyran]
[1]; [2]
  400 nm: 0.049

## C1CCC2=NCCCN2CC1 [#0594, 1,8-Diazabicyclo[5.4.0]-7-undecene]
pH of chemical solution; Table 2, chemical solution
  pH: 13.5
[1]; [2]
  400 nm: 0.05

## CN(C)CCOC(c1ccccc1)c1ccccc1.Cl [#0909, Diphanhydramine hydrochloride]
pH of chemical solution; Table 3
  pH: 7.0
[1]; Table 3
  OD400: 0.048

## c1cnccn1 [#1085, Pyrazine]
pH of chemical solution; Table 2, chemical solution
  pH: 8.6
[1]; [2]
  400 nm: 0.051

## CCCCCCCCCCCCCC[N+](C)(C)Cc1ccccc1 [#0362, Benzyldimethyltetradecylammonium chloride hydrate]
pH of chemical solution; Table 2, chemical solution
  pH: 6.6
Bovine coagulated blood
  Integrated value 500-700 nm Average: 1.74
  700 nm calibrated 420 nm Average: 2.13
[1]; [2]
  400 nm: 0.053

## Cc1cccc(C)c1NC1=NCCCS1.Cl [#1612, Xylazine hydrochloride]
pH of chemical solution; Table 3
  pH: 6.8
[1]; Table 3
  OD400: 0.063

## CC(CN)CCCN (centres unmarked) [#1267, 2-Methyl-1,5-diaminopentane]
pH of chemical solution; Table 2, chemical solution
  pH: 12.8

## CNCC(O)c1cccc(O)c1.Cl (racemic) [#1142, DL-Phenylephrine hydrochloride]
pH of chemical solution
  pH: 6.7
[1]
  OD400: 0.060

## CCCCCCCCCCCC[n+]1ccccc1 [#0635, 1-Dodecylpyridinium chloride]
Bovine coagulated blood
  Integrated value 500-700 nm Average: 3.67
  700 nm calibrated 420 nm Average: 3.66

## Cc1cc(=O)n(-c2ccccc2)n1C [#0640, 2,3-Dimethyl-1-phenyl-5-pyrazolone]
pH of chemical solution; Table 2, chemical solution
  pH: 7.5
pH of chemical solution; Table 3
  pH: 7.5
[1]; [2]
  400 nm: 0.048
[1]; Table 3
  OD400: 0.048

## OCCN1CC1 [#1061, 1-(2-Hydroxyethyl)ethyleneimine]
pH of chemical solution; Table 2, chemical solution
  pH: 13.1
[1]; [2]
  400 nm: 0.048

## Dodacene-1 LAS (JIS K 3361-1990) [#0672]
pH of chemical solution; Table 2, chemical solution
  pH: 5.9
[1]; [2]
  400 nm: 0.081

## NCCCNCCCN [#0785, 3,3′-Diaminodipropylamine]
pH of chemical solution; Table 2, chemical solution
  pH: 13.8
pH of chemical solution; Table 3
  pH: 13.8
[1]; [2]
  400 nm: 0.05
[1]; Table 3
  OD400: 0.05

## OCCNCc1ccccc1 [#0389, N-Benzylethanolamine]
Mouse hemisphere
  transparency of mouse hemispheres: selected

## CCCCCCCCCCCC[N+](C)(C)C [#1021, Dodecyltrimethylammonium chloride]
pH of chemical solution; Table 2, chemical solution
  pH: 7.5
[1]; [2]
  400 nm: 0.048

## CCn1ccnc1 [#0938, 1-Ethylimidazole]
Mouse spleen
  mouse spleen decoloring activity: highest mouse spleen decoloring activity

## C[n+]1ccc(-c2cc[n+](C)cc2)cc1 [#0652, 1,1′-Dimethyl-4,4′-bipyridinium dichloride]
pH of chemical solution; Table 2, chemical solution
  pH: 6.0
[1]; [2]
  400 nm: 0.082

## C1CCC2=[N+](CC1)CCCN2.O=C1N=C([O-])c2ccccc21 [#1181, Phtalimide DBU salt]
pH of chemical solution; Table 3
  pH: 6.0
[1]; Table 3
  OD400: 0.049

## C[C@H](CCC(=O)[O-])[C@H]1CC[C@H]2[C@@H]3CC[C@@H]4C[C@H](O)CC[C@]4(C)[C@H]3C[C@H](O)[C@]12C.[Na+] [#1507, Sodium deoxycholate]
pH of chemical solution; Table 2, chemical solution, listed as #0562
  pH: 8.3

## Cl.O=C(O)CCP(CCC(=O)O)CCC(=O)O [#0197, Tris(2-carboxyethyl)phosphine hydrochloride]
pH of chemical solution; Table 2, chemical solution
  pH: 2.3
[1]; [2]
  400 nm: 0.047

## CCCCN(CCO)CCO [#0414, N-Butyldiethanolamine]
Mouse hemisphere
  transparency of mouse hemispheres: selected

## c1c[nH]cn1 [#1352, imidazole]
Mouse brain
  swelling of mouse brain: high-degree of swelling

## CCCC[N+](CCCC)(CCCC)Cc1ccccc1.[Cl-] [#0307, Benzyltributylammonium chloride]
pH of chemical solution; Table 3
  pH: 7.0
[1]; Table 3
  OD400: 0.048

## CCCCCCCCCCCCCCCC[N+](C)(C)C [#1235, Hexadecyltrimethylammonium Chloride]
pH of chemical solution
  pH: 6.6
[1]
  400 nm: 0.048

## C[N+](C)(C)Cc1ccccc1.[OH-] [#03887, Benzyltrimethylammonium hydroxide]
pH of chemical solution; Table 2, chemical solution, listed as #0398
  pH: 12.9
[1]; [2]
  400 nm: 0.054

## [Cl-].c1ccc(C[P+](c2ccccc2)(c2ccccc2)c2ccccc2)cc1 [#0425, Benzyltriphenylphosphonium chloride]
pH of chemical solution; Table 2, chemical solution
  pH: 9.3
[1]; [2]
  400 nm: 0.048

## CN(CCCN)CCCN [#0380, 3,3′-Diamino-N-methyldipropylamine]
pH of chemical solution; Table 2, chemical solution
  pH: 13.0
[1]; [2]
  400 nm: 0.065

## CCCCCCCCCCCC[N+](C)(C)CCCS(=O)(=O)O [#0694, Dodecyldimethyl(3-sulfopropyl)ammonium hydroxide]
pH of chemical solution; Table 2, chemical solution, listed as #0661
  pH: 6.5
[1]; [2]
  400 nm: 0.55
[1]; Table 2, absorbance of chemical solution at 400 nm, listed as #0661
  400 nm: 0.051

## Tween ® 40 [#1465]
pH of chemical solution; Table 2, chemical solution
  pH: 6.4
[1]; [2]
  400 nm: 0.083

## CNC(=O)c1cccnc1 [#1283, N-Methylnicotinamide]
Bovine coagulated blood
  700 nm calibrated 420 nm Average: 2.96
[1]; Table 3
  OD400: 0.003

## CC(C)(C)CC(C)(C)c1ccc(OCCOCC[N+](C)(C)Cc2ccccc2)cc1 [#0441, Benzethonium chloride]
pH of chemical solution
  pH: 6.4
[1]
  400 nm: 0.049

## NC[C@H](O)[C@@H](O)[C@H](O)[C@H](O)CO [#0956, D-Glucoomine (FocusClear ™), reference compound]
[1]; Table 3
  OD400: 0.280
